Test [1] concerns Rattus norvegicus. Description: Effect on total mammary tumor volume in female rats on day 21 after a diet additive of 2 mmol/kg (+/-S.E) (p<0.05). Format: functional.
The target of test [2] is T1, Retinoic acid receptor gamma (Homo sapiens, UniProt P13631).
T1 sequence (P13631 whole entry): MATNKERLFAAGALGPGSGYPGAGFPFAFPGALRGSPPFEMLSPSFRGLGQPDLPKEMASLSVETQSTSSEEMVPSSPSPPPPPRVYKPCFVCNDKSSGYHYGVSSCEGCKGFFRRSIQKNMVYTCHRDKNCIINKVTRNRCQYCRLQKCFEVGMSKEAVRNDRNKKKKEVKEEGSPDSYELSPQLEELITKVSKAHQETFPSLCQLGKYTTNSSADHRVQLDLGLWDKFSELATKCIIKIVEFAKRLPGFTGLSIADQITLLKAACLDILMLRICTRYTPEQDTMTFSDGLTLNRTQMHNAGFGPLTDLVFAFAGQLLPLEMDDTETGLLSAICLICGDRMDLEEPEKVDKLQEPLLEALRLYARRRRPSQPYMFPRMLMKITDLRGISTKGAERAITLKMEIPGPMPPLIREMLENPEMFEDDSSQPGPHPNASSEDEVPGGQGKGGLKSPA
Description: Binding affinity against Retinoic acid receptor gamma.

In test [3] the test system is Rattus norvegicus. Description: Effect on total mammary tumor volume in female rats on day 1 after a diet additive of 2 mmol/kg (+/-S.E) (p<0.05). Format: functional.
In test [4] the test system is Rattus norvegicus. Description: % change in the mean tumor volume in female rats on 21 days after a diet additive of 2 mmol/kg of the compound. Format: functional.
The subject of test [5] is Rattus norvegicus. Description: Effect on total mammary tumor volume in female rats on day 7 after a diet additive of 2 mmol/kg (+/-S.E) (p<0.05). It counts as functional.
The test system of test [6] is Rattus norvegicus. Description: Effect on total mammary tumor volume in female rats on day 14 after a diet additive of 2 mmol/kg (+/-S.E) (p<0.05). It counts as functional.

Each structure is given as a SMILES string.

This passage reports Mean tumor volume, Ki and Change results from ChEMBL document CHEMBL1134100, “An unhydrolyzable analogue of N-(4-hydroxyphenyl)retinamide. synthesis and preliminary biological studies” (Bioorg Med Chem Lett, 2001).

For `CC1=C(/C=C/C(C)=C/C=C/C(C)=C/C(=O)Nc2ccc(O)cc2)C(C)(C)CCC1` [FENRETINIDE], the Mean tumor volume turned out to be 0.05 cm*3 in the test with Rattus norvegicus [1], 0.2 cm*3 with Rattus norvegicus [3], 0.17 cm*3 in the test on Rattus norvegicus [5] and 0.1 cm*3 in the test with Rattus norvegicus [6]. Moreover, in test [2], the Ki is > 400 nM. Also, the Change with Rattus norvegicus [4] is listed as -77%.
`CC1=C(/C=C/C(C)=C/C=C/C(C)=C/C(=O)Cc2ccc(O)cc2)C(C)(C)CCC1`: the Mean tumor volume in the test on Rattus norvegicus [1] is 0.09 cm*3; in the test on Rattus norvegicus [3], 0.59 cm*3; in the test with Rattus norvegicus [5], 0.47 cm*3; with Rattus norvegicus [6] it was 0.15 cm*3. In test [2], the Ki was > 4000 nM. Also, in the test on Rattus norvegicus [4], the Change is -85%.
`CC1=C(/C=C/C(C)=C/C=C/C(C)=C/C(=O)O)C(C)(C)CCC1` [TRETINOIN]: the Mean tumor volume is on record as 0.18 cm*3 in the test with Rattus norvegicus [1], 0.69 cm*3 in the test on Rattus norvegicus [3], 0.46 cm*3 in the test with Rattus norvegicus [5] and 0.27 cm*3 with Rattus norvegicus [6]. The Change with Rattus norvegicus [4] was -74%.
